# Measurements as given in EP4635500A1, “THERAPEUTIC AGENT FOR BACTERIAL INFECTION” (Sumitomo Pharma Co., Ltd., priority 2022, dated 2024).
# Read-outs that look alike come from different tables or passages of the source.
# Test system: Enterobacterales
# Assay: MIC, broth microdilution, CDC/FDA Antibiotic Resistance Isolate Bank (Example 7, Tables 8, 11, 12)
# Assay type: cell-based
# Settings: for MIC: read-out: MIC
structure (smiles),measurement,setting,value
"NCC[C@H](O)C(=O)N[C@@H]1C[C@H](N)[C@@H](O[C@H]2O[C@H](CN)[C@@H](O)[C@H](O)[C@H]2O)[C@H](O)[C@H]1O[C@H]1O[C@H](CO)[C@@H](O)[C@H](N)[C@H]1O [Amikacin, amikacin]",MIC50,"154 strains of Enterobacterales, read-out: MIC50",4 µg/mL
same,MIC90,"154 strains of Enterobacterales, read-out: MIC90",> 64 µg/mL
same,MIC,"Citrobacter freundii, KUB No. 5654, AR Bank # 157",> 64 µg/mL
same,MIC,"Enterobacter cloacae, Enterobacter cloacae KUB No. 5792, AR Bank #448",16 µg/mL
same,MIC,"Enterobacter cloacae, Enterobacter cloacae KUB No. 5807, AR Bank #501",4 µg/mL
same,MIC,"Enterobacter cloacae, Enterobacter cloacae KUB No. 5808, AR Bank #502",2 µg/mL
same,MIC,"Enterobacter cloacae, Enterobacter cloacae complex, KUB No. 5661, AR Bank # 164",1 µg/mL
same,MIC,"Enterobacter cloacae, Enterobacter cloacae group, KUB No. 5629, AR Bank # 132",1 µg/mL
same,MIC,"Enterobacter cloacae, KUB No. 5529, AR Bank# 32",1 µg/mL
same,MIC,"Enterobacter cloacae, KUB No. 5535, AR Bank# 38",> 64 µg/mL
same,MIC,"Enterobacter cloacae, KUB No. 5547, AR Bank# 50",1 µg/mL
same,MIC,"Enterobacter cloacae, KUB No. 5550, AR Bank# 53",64 µg/mL
same,MIC,"Enterobacter cloacae, KUB No. 5557, AR Bank# 60",1 µg/mL
same,MIC,"Enterobacter cloacae, KUB No. 5562, AR Bank # 65",1 µg/mL
same,MIC,"Enterobacter cloacae, KUB No. 5569, AR Bank # 72",1 µg/mL
same,MIC,"Enterobacter cloacae, KUB No. 5570, AR Bank # 73",0.25 µg/mL
same,MIC,"Enterobacter cloacae, KUB No. 5590, AR Bank # 93",2 µg/mL
same,MIC,"Enterobacter cloacae, KUB No. 5660, AR Bank # 163",4 µg/mL
same,MIC,"Enterobacter cloacae, KUB No. 5761, AR Bank # 365",16 µg/mL
same,MIC,"Enterobacter cloacae, KUB No. 5762, AR Bank # 366",4 µg/mL
same,MIC,"Enterobacter cloacae, KUB No. 5763, AR Bank # 367",1 µg/mL
same,MIC,"Enterobacter cloacae, KUB No. 5778, AR Bank # 432",2 µg/mL
same,MIC,"Enterobacter cloaccae, KUB No. 5651, AR Bank # 154",8 µg/mL
same,MIC,"Enterobacter clooreae, KUB No. 5633, AR Bank # 136",2 µg/mL
same,MIC,"Escherichia coli, Escherichia coli KUB No. 5783, AR Bank #437",2 µg/mL
same,MIC,"Escherichia coli, Escherichia coli KUB No. 5794, AR Bank #450",2 µg/mL
same,MIC,"Escherichia coli, Escherichia coli KUB No. 5795, AR Bank #451",8 µg/mL
same,MIC,"Escherichia coli, Escherichia coli KUB No. 5796, AR Bank #452",1 µg/mL
same,MIC,"Escherichia coli, Escherichia coli KUB No. 5803, AR Bank #861",1 µg/mL
same,MIC,"Escherichia coli, KUB No. 5558, AR Bank # 61",16 µg/mL
same,MIC,"Escherichia coli, KUB No. 5564, AR Bank # 67",2 µg/mL
same,MIC,"Escherichia coli, KUB No. 5566, AR Bank # 69",16 µg/mL
same,MIC,"Escherichia coli, KUB No. 5574, AR Bank # 77",1 µg/mL
same,MIC,"Escherichia coli, KUB No. 5578, AR Bank # 81",2 µg/mL
same,MIC,"Escherichia coli, KUB No. 5581, AR Bank # 84",0.5 µg/mL
same,MIC,"Escherichia coli, KUB No. 5582, AR Bank # 85",1 µg/mL
same,MIC,"Escherichia coli, KUB No. 5583, AR Bank # 86",1 µg/mL
same,MIC,"Escherichia coli, KUB No. 5586, AR Bank # 89",1 µg/mL
same,MIC,"Escherichia coli, KUB No. 5601, AR Bank # 104",1 µg/mL
same,MIC,"Escherichia coli, KUB No. 5611, AR Bank # 114",1 µg/mL
same,MIC,"Escherichia coli, KUB No. 5615, AR Bank # 118",> 64 µg/mL
same,MIC,"Escherichia coli, KUB No. 5616, AR Bank # 119",> 64 µg/mL
same,MIC,"Escherichia coli, KUB No. 5625, AR Bank # 128",> 64 µg/mL
same,MIC,"Escherichia coli, KUB No. 5634, AR Bank # 137",16 µg/mL
same,MIC,"Escherichia coli, KUB No. 5646, AR Bank # 149",2 µg/mL
same,MIC,"Escherichia coli, KUB No. 5647, AR Bank # 150",0.5 µg/mL
same,MIC,"Escherichia coli, KUB No. 5648, AR Bank # 151",1 µg/mL
same,MIC,"Escherichia coli, KUB No. 5659, AR Bank # 162",1 µg/mL
same,MIC,"Escherichia coli, KUB No. 5764, AR Bank # 368",2 µg/mL
same,MIC,"Escherichia coli, KUB No. 5765, AR Bank # 369",2 µg/mL
same,MIC,"Escherichia coli, KUB No. 5766, AR Bank # 370",4 µg/mL
same,MIC,"Escherichia coli, KUB No. 5767, AR Bank # 371",0.5 µg/mL
same,MIC,"Escherichia coli, KUB No. 5768, AR Bank # 372",2 µg/mL
same,MIC,"Escherichia coli, KUB No. 5769, AR Bank # 373",1 µg/mL
same,MIC,"Escherichia coli, KUB No. 5770, AR Bank # 374",1 µg/mL
same,MIC,"Escherichia coli, KUB No. 5774, AR Bank # 378",1 µg/mL
same,MIC,"Escherichia coli, KUB No. 5779, AR Bank # 433",0.5 µg/mL
same,MIC,"Escherichia coli, KUB No. 5780, AR Bank # 434",16 µg/mL
same,MIC,"Escherichia coli, KUB No. 5781, AR Bank # 435",> 64 µg/mL
same,MIC,"Escherichia, KUB No. 57, AR Bank # 436 (row cut off)",1 µg/mL
same,MIC,"Klebsiella aerogenes, Enterobacter aerogenes, KUB No. 5559, AR Bank # 62",2 µg/mL
same,MIC,"Klebsiella aerogenes, Enterobacter aerogenes, KUB No. 5571, AR Bank # 74",2 µg/mL
same,MIC,"Klebsiella aerogenes, Enterobacter aerogenes, KUB No. 5658, AR Bank # 161",2 µg/mL
same,MIC,"Klebsiella aerogenes, Enterobacter aerogenes, KUB No. 5777, AR Bank # 431",0.5 µg/mL
same,MIC,"Klebsiella oxytoca, KUB No. 5568, AR Bank # 71",0.5 µg/mL
same,MIC,"Klebsiella oxytoca, KUB No. 5644, AR Bank # 147",0.5 µg/mL
same,MIC,"Klebsiella oxytoca, KUB No. 5771, AR Bank # 375",4 µg/mL
same,MIC,"Klebsiella oxytoca, KUB No. 5776, AR Bank # 380",1 µg/mL
same,MIC,"Klebsiella ozaenae, KUB No. 5548, AR Bank# 51",> 64 µg/mL
same,MIC,"Klebsiella ozaenae, KUB No. 5593, AR Bank # 96",8 µg/mL
same,MIC,"Klebsiella pnemnonine, KUB No. 5758, AR Bank # 362",32 µg/mL
same,MIC,"Klebsiella pneumoniae, KUB No. 55, AR Bank# 47",32 µg/mL
same,MIC,"Klebsiella pneumoniae, KUB No. 5531, AR Bank# 34",1 µg/mL
same,MIC,"Klebsiella pneumoniae, KUB No. 5536, AR Bank# 39",4 µg/mL
same,MIC,"Klebsiella pneumoniae, KUB No. 5537, AR Bank# 40",32 µg/mL
same,MIC,"Klebsiella pneumoniae, KUB No. 5538, AR Bank# 41",> 64 µg/mL
same,MIC,"Klebsiella pneumoniae, KUB No. 5540, AR Bank# 43",1 µg/mL
